Reference: patent US20120172408A1, “ACTIVE INGREDIENT COMPRISING INDOCYANINE GREEN AND/OR INFRACYANINE GREEN” (A.R.C. LASER GMBH, priority 2011, published 2012)

System: microscopic organisms
Experiment: Antimicrobial effect of ICG under irradiation with light (photodynamic), infections on gingiva and teeth
Settings: more particularly laser light, wavelength 780 to 830 nm

CC1(C)C(/C=C/C=C/C=C/C=C2\N(CCCCS(=O)(=O)O)c3ccc4ccccc4c3C2(C)C)=[N+](CCCCS(=O)(=O)[O-])c2ccc3ccccc3c21 [ICG, Indocyanine green]
effect against microscopic organisms, more particularly an antimicrobial effect: outstanding effect
